Results taken from patent US20240109873A1, “ANTAGONISTS OF THE MUSCARINIC ACETYLCHOLINE RECEPTOR M4” (Vanderbilt University, priority 2020, published 2024).

Assays:
human mAChR M4 = biological target: T1, human mAChR M4 (Homo sapiens, UniProt P08173); assay: mAChR M4 cell-based functional assay (calcium flux, antagonism of EC80 acetylcholine response, M4/Gqi5/CHO-K1 cells); settings: for remaining activity at 30 µM: CHO-K1, % ACh maximum at 30 μM, read-out: Human M4 Emin; for IC50: decrease of the response elicited by an EC80 concentration of acetylcholine, CHO-K1 cells, Gqi5
T1 construct: expressed in transfected cells; host or cells: CHO-K1 (ATCC), co-transfected with chimeric G protein Gqi5
T1 sequence (P08173 1-479): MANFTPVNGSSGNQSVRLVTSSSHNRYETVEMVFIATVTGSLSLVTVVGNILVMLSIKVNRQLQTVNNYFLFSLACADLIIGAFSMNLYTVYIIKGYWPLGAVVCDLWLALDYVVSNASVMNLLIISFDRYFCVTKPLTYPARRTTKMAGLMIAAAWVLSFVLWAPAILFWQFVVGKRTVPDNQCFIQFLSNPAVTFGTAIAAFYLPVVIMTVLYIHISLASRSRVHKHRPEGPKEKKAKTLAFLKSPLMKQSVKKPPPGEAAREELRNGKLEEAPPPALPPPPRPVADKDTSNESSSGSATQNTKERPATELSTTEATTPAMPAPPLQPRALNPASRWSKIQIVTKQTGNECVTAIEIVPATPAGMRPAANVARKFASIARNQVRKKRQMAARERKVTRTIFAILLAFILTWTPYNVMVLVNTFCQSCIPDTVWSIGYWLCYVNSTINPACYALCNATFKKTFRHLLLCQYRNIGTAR
In short: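 CHO-K1 cells stably expressing human M4 with chimeric Gqi5, loaded with Fluo-4 AM; calcium flux read on FDSS. Compounds (10-point, 1:3 curves) added first, then EC20 acetylcholine at 143 s and EC80 at 268 s. IC50 from decrease of EC80 acetylcholine response, four-parameter logistic fit.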

mice = assay: haloperidol-induced catalepsy, a model of parkinsonian motor disability; format: in vivo
Description: Furthermore, haloperidol-induced catalepsy, a model of parkinsonian motor disability, is reduced in M4 knockout mice as compared to wild-type controls. […] The reversal by scopolamine was uncommonly robust and more pronounced than we observe with agents targeting a number of other targets being evaluated for potential antiparkinsonian effects, including metabotropic glutamate (mGlu) receptors mGlu4 or mGlu5, A2A adenosine receptors, and NMDA receptors. […] Taken together with the extensive studies of M4 modulation of basal ganglia and motor function, these studies provide compelling evidence that M4 is the dominant mAChR subtype involved in the antiparkinsonian effects of non-selective mAChR antagonists and provide support for discovery and development of selective M4 antagonists for treatment of neurodegenerative disease such as PD, dystonia, tardive dyskinesia and other movement disorders.

Structure (SMILES)	remaining activity at 30 µM (human mAChR M4)	IC50 (human mAChR M4)	reduction of catalepsy induced by haloperidol (mice; M4 KO mice)	reversal of catalepsy induced by haloperidol (mice; WT mice)
[2H]C([2H])(C1CCOCC1)N1C[C@H]2C[C@H](Nc3ccc(-c4cccnc4C(F)(F)F)nc3)C[C@H]2C1 [Compound 41, (3aR,5s,6aS)-2-((tetrahydro-2H-pyran-4-yl)methyl-d2)-N-(2′-(trifluoromethyl)-[2,3′-bipyridin]-5-yl)octahydrocyclopenta[c]pyrrol-5-amine]	2%	8.7 nM	–	–
[2H]C([2H])(CC1CCOCC1)N1C[C@H]2C[C@H](Nc3ccc(-c4cccnc4C(F)(F)F)nn3)C[C@H]2C1 [Compound 42, (3aR,5s,6aS)-2-(2-(tetrahydro-2H-pyran-4-yl)ethyl-1,1-d2)-N-(6-(2-(trifluoromethyl)pyridin-3-yl)pyridazin-3-yl)octahydrocyclopenta[c]pyrrol-5-amine]	2%	1.3 nM	–	–
[2H]C([2H])(C1CCOC(C)(C)C1)N1C[C@H]2C[C@H](Nc3ccc(-c4cccnc4C(F)(F)F)nn3)C[C@H]2C1 (stereo partly drawn) [Compound 43, (3aR,5s,6aS)-2-((2,2-dimethyltetrahydro-2H-pyran-4-yl)methyl-d2)-N-(6-(2-(trifluoromethyl)pyridin-3-yl)pyridazin-3-yl)octahydrocyclopenta[c]pyrrol-5-amine]	2%	2.6 nM	–	–
[2H]C1([2H])CC(C([2H])([2H])N2C[C@H]3C[C@H](Nc4ccc(-c5cccnc5C(F)(F)F)nn4)C[C@H]3C2)CC([2H])([2H])O1 [Compound 44, (3aR,5s,6aS)-2-((tetrahydro-2H-pyran-4-yl-2,2,6,6-d4)methyl-d2)-N-(6-(2-(trifluoromethyl)pyridin-3-yl)pyridazin-3-yl)octahydrocyclopenta[c]pyrrol-5-amine]	2%	1.4 nM	–	–
[2H]C([2H])(C1CC(C)(C)OC(C)(C)C1)N1C[C@H]2C[C@H](Nc3ccc(-c4cccnc4C(F)(F)F)nn3)C[C@H]2C1 [Compound 45, (3aR,5s,6aS)-2-((2,2,6,6-tetramethyltetrahydro-2H-pyran-4-yl)methyl-d2)-N-(6-(2-(trifluoromethyl)pyridin-3-yl)pyridazin-3-yl)octahydrocyclopenta[c]pyrrol-5-amine]	2%	14.7 nM	–	–
[2H]C([2H])([C@H]1CCCOC1)N1C[C@H]2C[C@H](Nc3ccc(-c4cccnc4C(F)(F)F)nn3)C[C@H]2C1 [Compound 46, (3aR,5s,6aS)-2-(((R)-tetrahydro-2H-pyran-3-yl)methyl-d2)-N-(6-(2-(trifluoromethyl)pyridin-3-yl)pyridazin-3-yl)octahydrocyclopenta[c]pyrrol-5-amine]	2%	21.7 nM	–	–
[2H]C([2H])([C@@H]1CCCOC1)N1C[C@H]2C[C@H](Nc3ccc(-c4cccnc4C(F)(F)F)nn3)C[C@H]2C1 [Compound 47, (3aR,5s,6aS)-2-(((S)-tetrahydro-2H-pyran-3-yl)methyl-d2)-N-(6-(2-(trifluoromethyl)pyridin-3-yl)pyridazin-3-yl)octahydrocyclopenta[c]pyrrol-5-amine]	2%	4 nM	–	–
[2H]C([2H])([C@@H]1CCCCO1)N1C[C@H]2C[C@H](Nc3ccc(-c4cccnc4C(F)(F)F)nn3)C[C@H]2C1 [Compound 48, (3aR,5s,6aS)-2-(((S)-tetrahydro-2H-pyran-2-yl)methyl-d2)-N-(6-(2-(trifluoromethyl)pyridin-3-yl)pyridazin-3-yl)octahydrocyclopenta[c]pyrrol-5-amine]	2%	0.87 nM	–	–
[2H]C([2H])([C@H]1CCCCO1)N1C[C@H]2C[C@H](Nc3ccc(-c4cccnc4C(F)(F)F)nn3)C[C@H]2C1 [Compound 49, (3aR,5s,6aS)-2-(((R)-tetrahydro-2H-pyran-2-yl)methyl-d2)-N-(6-(2-(trifluoromethyl)pyridin-3-yl)pyridazin-3-yl)octahydrocyclopenta[c]pyrrol-5-amine]	2%	0.55 nM	–	–
[2H]C([2H])(C1CCOCC1)N1C[C@H]2C[C@H](Nc3nnc(-c4cccnc4C(F)(F)F)cc3C)C[C@H]2C1 [Compound 50, (3aR,5s,6aS)-N-(4-methyl-6-(2-(trifluoromethyl)pyridin-3-yl)pyridazin-3-yl)-2-((tetrahydro-2H-pyran-4-yl)methyl-d2)octahydrocyclopenta[c]pyrrol-5-amine]	1%	0.88 nM	–	–
[2H]C([2H])([C@H]1COCCO1)N1C[C@H]2C[C@H](Nc3ccc(-c4cccnc4C(F)(F)F)nn3)C[C@H]2C1 [Compound 51, (3aR,5s,6aS)-2-(((S)-1,4-dioxan-2-yl)methyl-d2)-N-(6-(2-(trifluoromethyl)pyridin-3-yl)pyridazin-3-yl)octahydrocyclopenta[c]pyrrol-5-amine]	2%	1.4 nM	–	–
CN1[C@@H]2C[C@@H](OC(=O)[C@H](CO)c3ccccc3)C[C@H]1[C@@H]1O[C@@H]12 [scopolamine]	–	–	ineffective in reducing catalepsy	completely reversed

More lines, main results first:

remaining activity at 30 µM (human mAChR M4)	IC50 (human mAChR M4)	Structure (SMILES)	reduction of catalepsy induced by haloperidol (mice; M4 KO mice)	reversal of catalepsy induced by haloperidol (mice; WT mice)
2%	0.58 nM	[2H]C([2H])(C1CCCOCC1)N1C[C@H]2C[C@H](Nc3ccc(-c4cccnc4C(F)(F)F)nn3)C[C@H]2C1 (stereo partly drawn) [Compound 52, (3aR,5s,6aS)-2-(oxepan-4-ylmethyl-d2)-N-(6-(2-(trifluoromethyl)pyridin-3-yl)pyridazin-3-yl)octahydrocyclopenta[c]pyrrol-5-amine]	–	–
3%	2.9 nM	[2H]C([2H])(C1CCOCC1(C)C)N1C[C@H]2C[C@H](Nc3ccc(-c4cccnc4C(F)(F)F)nn3)C[C@H]2C1 (stereo partly drawn) [Compound 53, (3aR,5s,6aS)-2-((3,3-dimethyltetrahydro-2H-pyran-4-yl)methyl-d2)-N-(6-(2-(trifluoromethyl)pyridin-3-yl)pyridazin-3-yl)octahydrocyclopenta[c]pyrrol-5-amine]	–	–
2%	0.69 nM	[2H]C([2H])(C1CC2(CC2)CO1)N1C[C@H]2C[C@H](Nc3ccc(-c4cccnc4C(F)(F)F)nn3)C[C@H]2C1 (stereo partly drawn) [Compound 54, (3aR,Ss,6aS)-2-((5-oxaspiro[2.4]heptan-6-yl)methyl-d2)-N-(6-(2-(trifluoromethyl)pyridin-3-yl)pyridazin-3-yl)octahydrocyclopenta[c]pyrrol-5-amine]	–	–
3%	5.5 nM	[2H]C([2H])(N1C[C@H]2C[C@H](Nc3ccc(-c4cccnc4C(F)(F)F)nn3)C[C@H]2C1)C12COC(C)(C1)C2 [Compound 55, (3aR,5s,6aS)-2-((1-methyl-2-oxabicyclo[2.1.1]hexan-4-yl)methyl-d2)-N-(6-(2-(trifluoromethyl)pyridin-3-yl)pyridazin-3-yl)octahydrocyclopenta[c]pyrrol-5-amine]	–	–
4%	1.4 nM	[2H]C([2H])(C1CCOC2(CCC2)C1)N1C[C@H]2C[C@H](Nc3ccc(-c4cccnc4C(F)(F)F)nn3)C[C@H]2C1 (stereo partly drawn) [Compound 60, (3aR,5s,6aS)-2-((5-oxaspiro[3.5]nonan-8-yl)methyl-d2)-N-(6-(2-(trifluoromethyl)pyridin-3-yl)pyridazin-3-yl)octahydrocyclopenta[c]pyrrol-5-amine]	–	–
